Measured values published in patent publication US12227495B2, “Herbicidal compounds” (SYNGENTA CROP PROTECTION AG, priority 2018, dated 2025).

How the values were obtained:
Assay type in all cases: in vivo
Settings in all cases: evaluated after 13 days
[1] = system: Amaranthus retoflexus (AMARE); assay: Pre-emergence herbicide test, glasshouse, percentage damage
In short: (§1)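 Pot-grown plants were sprayed at 500 g/ha unless otherwise stated, in acetone/water (50:50) with 0.5% Tween 20. Pre-emergence spraying was 1 day after sowing and post-emergence after 8 days, in a glasshouse at 24/16° C, 14 h light, 65% humidity. Percentage damage was scored 13 days later on a 1–5 scale (5=81-100%).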

[2] = system: Echinochloa crus-galli (ECHCG); assay: as above
In short: as §1

[3] = system: Ipomoea hederacea (IPOHE); assay: as above
In short: as §1

Solanum nigrum (SOLNI) [4] = assay: as above
In short: as §1

Setaria faberi (SETFA) [5] = assay: as above
In short: as §1

Lolium perenne (LOLPE) [6] = assay: as above
In short: as §1

[7] = system: Amaranthus retoflexus (AMARE); assay: Post-emergence herbicide test, glasshouse, percentage damage
In short: as §1

[8] = system: Echinochloa crus-galli (ECHCG); assay: as above
In short: as §1

[9] = system: Ipomoea hederacea (IPOHE); assay: as above
In short: as §1

Solanum nigrum (SOLNI) [10] = assay: as above
In short: as §1

Setaria faberi (SETFA) [11] = assay: as above
In short: as §1

Lolium perenne (LOLPE) [12] = assay: as above
In short: as §1

| Compound | Pre-emergence Test AMARE percentage damage (five point scale) ([1]; rate 1000 g/ha) | Pre-emergence Test ECHCG percentage damage (five point scale) ([2]; rate 1000 g/ha) | Pre-emergence Test IPOHE percentage damage (five point scale) ([3]; rate 1000 g/ha) | Pre-emergence Test SOLNI percentage damage (five point scale) (Solanum nigrum (SOLNI) [4]; rate 1000 g/ha) | Pre-emergence Test SETFA percentage damage (five point scale) (Setaria faberi (SETFA) [5]; rate 1000 g/ha) | Pre-emergence Test LOLPE percentage damage (five point scale) (Lolium perenne (LOLPE) [6]; rate 1000 g/ha) | percentage damage caused to the plant, AMARE ([7]; 1000 g/ha) | percentage damage caused to the plant, ECHCG ([8]; 1000 g/ha) | percentage damage caused to the plant, IPOHE ([9]; 1000 g/ha) | percentage damage caused to the plant, SOLNI (Solanum nigrum (SOLNI) [10]; 1000 g/ha) | percentage damage caused to the plant, SETFA (Setaria faberi (SETFA) [11]; 1000 g/ha) | percentage damage caused to the plant, LOLPE (Lolium perenne (LOLPE) [12]; 1000 g/ha) | further results |
| --- | --- | --- | --- | --- | --- | --- | --- | --- | --- | --- | --- | --- | --- |
| N#Cc1ccc(Oc2ccccc2-n2cc(C(F)(F)F)cn2)nc1 [Compound A19] | 5 (5=81-100%) | 5 (5=81-100%) | 5 (5=81-100%) | 5 (5=81-100%) | 5 (5=81-100%) | 5 (5=81-100%) | 5 (5=81-100%) | 5 (5=81-100%) | 5 (5=81-100%) | 5 (5=81-100%) | 5 (5=81-100%) | 5 (5=81-100%) |  |
| Fc1cc(Cl)cnc1Oc1cccc(F)c1-c1cc(C(F)(F)F)on1 [Compound A25, 3-[2-[(5-chloro-3-fluoro-2-pyridyl)oxy]-6-fluoro-phenyl]-5-(trifluoromethyl)isoxazole] | 5 (5=81-100%) | 5 (5=81-100%) | 5 (5=81-100%) | 5 (5=81-100%) | 5 (5=81-100%) | 5 (5=81-100%) | 5 (5=81-100%) | 4 (4=61-80%) | 4 (4=61-80%) | 5 (5=81-100%) | 5 (5=81-100%) | 5 (5=81-100%) |  |
| Fc1cc(Cl)cnc1Oc1ccccc1-n1ccc(C(F)(F)F)n1 [Compound A121] | 4 (4=61-80%) | 4 (4=61-80%) | 1 (1=0-20%) | 1 (1=0-20%) | 3 (3=41-60%) | 1 (1=0-20%) | 4 (4=61-80%) | 3 (3=41-60%) | 2 (2=21-40%) | 4 (4=61-80%) | 3 (3=41-60%) | 1 (1=0-20%) |  |
| FC(F)(F)c1ccc(Oc2ccccc2-n2cc(C(F)(F)F)cn2)nc1 [Compound A15] | 5 (5=81-100%) | 5 (5=81-100%) | 1 (1=0-20%) | 4 (4=61-80%) | 5 (5=81-100%) | 3 (3=41-60%) | 1 (1=0-20%) | 2 (2=21-40%) | 2 (2=21-40%) | 4 (4=61-80%) | 3 (3=41-60%) | 1 (1=0-20%) |  |
| Fc1cccc(Oc2cccc(F)c2-c2cc(C(F)F)no2)n1 [Compound A7] |  |  |  |  |  |  |  |  |  |  |  |  | Pre-emergence Test AMARE percentage damage (five point scale) ([1]; rate 500 g/ha): 5 (5=81-100%); Pre-emergence Test ECHCG percentage damage (five point scale) ([2]; rate 500 g/ha): 4 (4=61-80%); Pre-emergence Test IPOHE percentage damage (five point scale) ([3]; rate 500 g/ha): 1 (1=0-20%); Pre-emergence Test SOLNI percentage damage (five point scale) (Solanum nigrum (SOLNI) [4]; rate 500 g/ha): 5 (5=81-100%); Pre-emergence Test SETFA percentage damage (five point scale) (Setaria faberi (SETFA) [5]; rate 500 g/ha): 4 (4=61-80%); Pre-emergence Test LOLPE percentage damage (five point scale) (Lolium perenne (LOLPE) [6]; rate 500 g/ha): 1 (1=0-20%); percentage damage caused to the plant, AMARE ([7]; 500 g/ha): 2 (2=21-40%); percentage damage caused to the plant, ECHCG ([8]; 500 g/ha): 4 (4=61-80%); percentage damage caused to the plant, IPOHE ([9]; 500 g/ha): 2 (2=21-40%); percentage damage caused to the plant, SOLNI (Solanum nigrum (SOLNI) [10]; 500 g/ha): 5 (5=81-100%); percentage damage caused to the plant, SETFA (Setaria faberi (SETFA) [11]; 500 g/ha): 5 (5=81-100%); percentage damage caused to the plant, LOLPE (Lolium perenne (LOLPE) [12]; 500 g/ha): 2 (2=21-40%) |
| Fc1cc(Cl)cnc1Oc1ccccc1-c1cc(C(F)(F)F)cs1 [Compound A97, 5-chloro-3-fluoro-2-[2-[4-(trifluoromethyl)-2-thienyl]phenoxy]pyridine] | 4 (4=61-80%) | 3 (3=41-60%) | 2 (2=21-40%) | 2 (2=21-40%) | 4 (4=61-80%) | 2 (2=21-40%) | 5 (5=81-100%) | 4 (4=61-80%) | 4 (4=61-80%) | 4 (4=61-80%) | 5 (5=81-100%) | 3 (3=41-60%) |  |
| O=[N+]([O-])c1cc(Cl)cnc1Oc1cccc(F)c1-c1cc(C(F)F)no1 [Compound A38] | 4 (4=61-80%) | 1 (1=0-20%) | 1 (1=0-20%) | 1 (1=0-20%) | 1 (1=0-20%) | 1 (1=0-20%) | 5 (5=81-100%) | 1 (1=0-20%) | 1 (1=0-20%) | 5 (5=81-100%) | 1 (1=0-20%) | 1 (1=0-20%) |  |
| O=[N+]([O-])c1ccc(Oc2cccc(F)c2-c2cc(C(F)F)no2)nc1 [Compound A2, 3-(DIFLUOROMETHYL)-5-[2-FLUORO-6-[(5-NITRO-2-PYRIDYL)OXY]PHENYL]ISOXAZOLE] |  |  |  |  |  |  |  |  |  |  |  |  | Pre-emergence Test AMARE percentage damage (five point scale) ([1]; rate 500 g/ha): 5 (5=81-100%); Pre-emergence Test ECHCG percentage damage (five point scale) ([2]; rate 500 g/ha): 5 (5=81-100%); Pre-emergence Test IPOHE percentage damage (five point scale) ([3]; rate 500 g/ha): 2 (2=21-40%); Pre-emergence Test SOLNI percentage damage (five point scale) (Solanum nigrum (SOLNI) [4]; rate 500 g/ha): 4 (4=61-80%); Pre-emergence Test SETFA percentage damage (five point scale) (Setaria faberi (SETFA) [5]; rate 500 g/ha): 5 (5=81-100%); Pre-emergence Test LOLPE percentage damage (five point scale) (Lolium perenne (LOLPE) [6]; rate 500 g/ha): 4 (4=61-80%); percentage damage caused to the plant, AMARE ([7]; 500 g/ha): 5 (5=81-100%); percentage damage caused to the plant, ECHCG ([8]; 500 g/ha): 5 (5=81-100%); percentage damage caused to the plant, IPOHE ([9]; 500 g/ha): 4 (4=61-80%); percentage damage caused to the plant, SOLNI (Solanum nigrum (SOLNI) [10]; 500 g/ha): 5 (5=81-100%); percentage damage caused to the plant, SETFA (Setaria faberi (SETFA) [11]; 500 g/ha): 5 (5=81-100%); percentage damage caused to the plant, LOLPE (Lolium perenne (LOLPE) [12]; 500 g/ha): 5 (5=81-100%) |
| N#Cc1cc(Cl)cnc1Oc1cccc(Br)c1-c1cc(C(F)F)no1 [Compound A105] | 5 (5=81-100%) | 5 (5=81-100%) | 5 (5=81-100%) | 5 (5=81-100%) | 5 (5=81-100%) | 5 (5=81-100%) | 5 (5=81-100%) | 4 (4=61-80%) | 5 (5=81-100%) | 5 (5=81-100%) | 5 (5=81-100%) | 4 (4=61-80%) |  |
| FC(F)c1cc(-c2c(Br)cccc2Oc2ncc(Cl)cc2Cl)on1 [Compound A89] | 4 (4=61-80%) | 4 (4=61-80%) | 3 (3=41-60%) | 2 (2=21-40%) | 4 (4=61-80%) | 2 (2=21-40%) | 5 (5=81-100%) | 4 (4=61-80%) | 4 (4=61-80%) | 4 (4=61-80%) | 5 (5=81-100%) | 3 (3=41-60%) |  |
| O=[N+]([O-])c1cnc(Oc2cccc(F)c2-c2cc(C(F)F)no2)c(F)c1 [Compound A22] | 5 (5=81-100%) | 3 (3=41-60%) | 1 (1=0-20%) | 1 (1=0-20%) | 3 (3=41-60%) | 1 (1=0-20%) | 4 (4=61-80%) | 2 (2=21-40%) | 3 (3=41-60%) | 4 (4=61-80%) | 3 (3=41-60%) | 2 (2=21-40%) |  |
